Results from patent US20130252983A1, “ACTIVATING PHOSPHORYLATION SITE ON GLUTAMINASE C” (CORNELL UNIVERSITY, priority 2010, published 2013).

What was measured:
[1] = tested on: normal NIH 3T3 cells; test: Growth and morphology of control NIH 3T3 cells; format: cell-based, mouse; conditions: 10% calf serum; 10 μM (growth), 5 μM (morphology)
Procedure: FIGS. 1A-E illustrate that the small molecule 968 inhibits cellular transformation. […] Cells were fixed and stained with crystal violet for counting of foci. Right: 968 was serially diluted (10, 5, 2.5, and 1.25 μM) and evaluated for its ability to inhibit focus formation. […] After 6 days, the cells were counted. 100% represents the number of Dbl-transformed cells counted in the absence of 968 (27.5×10^4 cells). Data represent the average of 3 experiments (±s.d.). […] At the indicated times, the cells were counted. Data represent the average of 3 experiments (±s.d.).

[2] = tested on: HMECs; test: Growth of normal human mammary epithelial cells; format: cell-based; conditions: 10 μM, MEGM complete medium, 6 days
[3] = molecular target: T1, mouse GAC (E. coli-expressed mouse ortholog of human GAC) (Mus musculus, UniProt D3Z7P3); test: Recombinant glutaminase activity assay; format: biochemical
T1 construct: A plasmid encoding mouse GAC (residues 128-603) was cloned into the pET28a vector; His (N, cleaved yes); made in house; host or cells: E. coli (pET28a)
T1 sequence (D3Z7P3 128-603 isoform D3Z7P3-2): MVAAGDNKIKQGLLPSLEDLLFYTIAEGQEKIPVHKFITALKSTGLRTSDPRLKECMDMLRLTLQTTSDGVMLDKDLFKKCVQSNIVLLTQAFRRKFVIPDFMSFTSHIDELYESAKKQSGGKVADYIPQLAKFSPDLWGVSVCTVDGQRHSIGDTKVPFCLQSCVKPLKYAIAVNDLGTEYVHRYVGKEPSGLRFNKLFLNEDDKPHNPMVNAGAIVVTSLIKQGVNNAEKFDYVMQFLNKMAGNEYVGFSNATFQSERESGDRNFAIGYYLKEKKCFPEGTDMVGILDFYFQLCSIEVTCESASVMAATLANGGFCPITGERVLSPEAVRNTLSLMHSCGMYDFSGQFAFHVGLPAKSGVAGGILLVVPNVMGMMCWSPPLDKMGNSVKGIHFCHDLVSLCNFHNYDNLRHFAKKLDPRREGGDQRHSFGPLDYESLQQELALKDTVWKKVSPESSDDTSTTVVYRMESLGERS
Procedure: 100%=620 moles of glutamine hydrolyzed per minute per mole of enzyme. Data represent the average of 3 experiments (±s.d.). […] Following precipitation of the beads and re-suspension, the samples were analyzed by Western blotting with anti-V5 antibody. […] Data represent the average of 3 experiments (±s.d.). […] Data represent the average of 3 experiments (±s.d.). […] Data represent the average of 3 experiments (±s.d.). FIG. 3E NIH 3T3 cells transiently expressing Dbl were assayed for focus formation in the presence of 10 μM 968 alone or together with 7 mM dimethyl α-ketoglutarate. […] 100%=680 nM glutamine hydrolyzed per minute per 10^5 cells. Data are the average of 3 experiments (±s.d.). […] 100%=750 nM glutamine hydrolyzed per minute per 10^5 cells. Data represent the average of 3 experiments (±s.d.).
The activity of the E. coli-expressed recombinant mouse ortholog of human GAC were assayed in the presence of 0 ([…]), 10 (∇) or 20 (▪) μM 968 and inorganic phosphate in the form of dipotassium hydrogen phosphate. […] The data are plotted as GA activity as function of varying concentrations of glutamine or inorganic phosphate. The data are the average of 3 experiments and are plotted as mean±SEM.
Glutaminase activity assays were performed on recombinant enzyme as previously described (Kenny et al., “Bacterial Expression, Purification and Characterization of Rat Kidney-Type Mitochondrial Glutaminase,” Protein Expr. Purif. 31:140-148 (2003), which is hereby incorporated by reference in its entirety). A plasmid encoding mouse GAC (residues 128-603) was cloned into the pET28a vector and the protein was expressed with an N-terminal histidine (His)-tag. The tag was cleaved using thrombin and the protein was further purified by anion-exchange and gel-filtration chromatography. […] The reaction mixture was incubated at room temperature for 45 minutes and the absorbance at 340 nm was recorded for each sample against a water blank. The absorbance of the sample with just the cocktail mixture was subtracted from each reading to calculate the activity of the enzyme.

[4] = tested on: NIH 3T3 cells stably expressing Cdc42(F28L) and transiently expressing mouse GAC; test: Focus formation of Cdc42(F28L) cells transiently expressing GAC; format: cell-based
Description: FIGS. 4A-E illustrate the role of glutaminase C activity in cellular transformation. […] Data represent the average of 3 experiments (±s.d.). […] Data represent the average of 3 experiments (±s.d.). […] 100% represents the activity measured in untreated Dbl-transformed cells. The data represent the average of 2 experiments. […] 100% represents the activity measured in untreated SKBR3 cells. The data represent the average of 2 experiments. […] Data represent the average of 3 experiments (±s.d.).

CN(C)c1ccc(C2Nc3ccc4ccccc4c3C3=C2C(=O)CC(C)(C)C3)cc1Br (centres unmarked) [Compound 968, 5-[3-bromo-4-(dimethylamino)phenyl]-2,2-dimethyl-2,3,5,6-tetrahydrobenzo[a]]
effect on growth or morphology of normal NIH 3T3 cells [1]: no significant effects
effect on growth of HMECs [2]: little effect
inhibition of enzymatic activity of purified mouse GAC [3]: inhibits the enzymatic activity
mode of inhibition ([3]; 0, 10 or 20 μM, glutamine or inorganic phosphate varied): neither competitive versus substrate (glutamine) nor inorganic phosphate
focus-forming activity [4]: can be blocked
